Broadly, the IC50 is the concentration that inhibits the measured activity by half. A higher IC50 goes with weaker potency. The term EC50 denotes the concentration that produces a half-maximal response.

This is an account of results in article PMC4126480, “Evaluation of drug interaction potential of Labisia pumila (Kacip Fatimah) and its constituents” (Frontiers in Pharmacology, 2014).

Data set [1] addresses T1, P-gp (Homo sapiens, UniProt P08183). Kind of data set: P-gp inhibition by 3H-digoxin basolateral to apical transport in hMDR1-MDCK-II cells. How it is done:
The cells were seeded at a density of 120,000 cells/well in 12-well Transwell plates and cultured for 3 days. […] Cells were washed with warm HBSS buffer supplemented with 10 mM HEPES (pH 7.4) and pre-incubated with 0.5 mL of buffer containing test samples (six concentrations) on the apical side and 1.5 mL of buffer on the basolateral side for 30 min (37 °C, 5% CO2, and 95% relative humidity). […] Aliquots of 25 μL were taken out from the apical side, mixed with 100 μL of scintillant (Microscint TM-40, PerkinElmer) and radioactive counts were measured on a TopCount microplate scintillation counter (PerkinElmer, Waltham, MA, USA) in CPM mode.
The inhibition of the basolateral to apical (B-A) transport of digoxin by test samples was calculated compared to the vehicle control.

For the next data set, the target named is T2, PXR (Homo sapiens, UniProt O75469).
T2 construct: expressed in transfected cells; host or cells: HepG2 cells, transient electroporation with pSG5-PXR and the CYP3A4-PXRE-LUC reporter
T2 sequence (O75469 1-434): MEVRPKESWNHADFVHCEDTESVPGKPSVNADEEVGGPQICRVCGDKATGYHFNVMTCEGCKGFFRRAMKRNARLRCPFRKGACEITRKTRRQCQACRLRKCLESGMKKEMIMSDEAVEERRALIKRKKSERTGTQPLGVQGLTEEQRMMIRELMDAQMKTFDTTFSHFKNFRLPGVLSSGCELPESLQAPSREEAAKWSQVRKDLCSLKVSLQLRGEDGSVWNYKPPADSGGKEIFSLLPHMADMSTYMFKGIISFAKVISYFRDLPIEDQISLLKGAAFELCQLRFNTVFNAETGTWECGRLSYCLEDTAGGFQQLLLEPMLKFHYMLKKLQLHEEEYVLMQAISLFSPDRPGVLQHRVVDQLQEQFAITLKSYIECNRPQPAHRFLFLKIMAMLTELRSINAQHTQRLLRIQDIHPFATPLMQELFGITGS
Description: Inhibition of rifampicin-induced PXR activity, reporter gene assay in HepG2 cells. The format is cell-based. Particulars: extract 3–30 μg/mL, saponins 3–30 μM. The text has this: The pSG5-hPXR expression vector was provided generously by Dr. Steven Kliewer (University of Texas Southwestern Medical Center, Dallas, TX, USA; [Lehmann et al., 1998]) and the reporter plasmid CYP3A4-PXR response element (PXRE)-LUC (containing the proximal 0/–362 and distal 7208/7797 PXRE regions fused upstream of luciferase; [Goodwin et al., 1999]) was a kind gift from Dr. Christopher Liddle (University of Sydney, Westmead, NSW, Australia). The modulation of PXR activity by test samples was determined in HepG2 cells transiently transfected with pSG5-PXR (25 μg) and PCR5 plasmid DNA (25 μg) by electroporation at 180 V, 1 pulse for 70 msec. The cells were plated in 96-well plates at a density of 50,000 cells per well. […] After additional 24 hour incubation, the media was aspirated and 40 μL of luciferase reagent (Promega Corporation, Madison, WI, USA) was added to each well and luminescence was measured on Spectramax M5 plate reader (Molecular Devices, Sunnyvale, CA, USA). The fold induction in luciferase activity in the treated cells was calculated in comparison to vehicle treated cells. The cytotoxicity of test samples toward HepG2 cells was also determined by measuring the cell viability using the CellTiter 96 AQueous One Solution Cell Proliferation Assay (MTS) as described earlier ([Manda et al., 2013]).

A short description of data set [2]: Estimation of concentration per dose, GIT and plasma concentrations (560 mg KF extract dose). Set-up: species or system human. Particulars: for Estimated concentration per dose: 560 mg KF extract, single dose, from % yield; for Estimated GIT concentration / Estimated Plasma concentration: 560 mg dose; for Estimated GIT concentration: human GIT volume 250 mL; for Estimated Plasma concentration: Table 2, plasma volume 3 L, 100% bioavailable assumed. On the procedure: All assumptions to predict the HDI potential of KF methanolic extract and its constituents were according to previously published report ([Awortwe et al., 2014]). The % yield was calculated from the amounts extracted from the KF roots ([Ali and Khan, 2011]). The human GIT volume is 250 mL and plasma volume is about 3 L. The commonly used maximum dose of KF extract capsules is 560 mg per day ([Abdul Kadir et al., 2012]) and accordingly we estimated the concentration per dose, GIT, and plasma concentrations of extract and its constituents. We then compared the in vitro IC50 values obtained from recombinant CYPs with estimated GIT and plasma concentrations. If the IC50 values were lower than the GIT or plasma concentration, then the test compound or extract is likely to cause HDI in vivo.

The target of data set [3] is T1, P-gp. Kind of data set: P-gp inhibition by calcein-AM uptake in hMDR1-MDCK-II cells.
Description: Cells were seeded in 96-well plates at 70,000 cells/well in 200 μL of culture medium. The medium was changed at 24 h after seeding and the assay was performed 48 h later.
In data set [4] the test system is hMDR1-MDCK-II cell monolayers. Kind of data set: Monolayer integrity: permeability of Lucifer yellow. The format is in vitro ADME, canine. Particulars: paracellular marker.
Description: The cells were seeded at a density of 120,000 cells/well in 12-well Transwell plates and cultured for 3 days. TEER values were in the range of 500–800 Ω cm^2. Cells were washed with warm HBSS buffer supplemented with 10 mM HEPES (pH 7.4) and pre-incubated with 0.5 mL of buffer containing test samples (six concentrations) on the apical side and 1.5 mL of buffer on the basolateral side for 30 min (37 °C, 5% CO2, and 95% relative humidity).

T1 sequence (P08183 whole entry): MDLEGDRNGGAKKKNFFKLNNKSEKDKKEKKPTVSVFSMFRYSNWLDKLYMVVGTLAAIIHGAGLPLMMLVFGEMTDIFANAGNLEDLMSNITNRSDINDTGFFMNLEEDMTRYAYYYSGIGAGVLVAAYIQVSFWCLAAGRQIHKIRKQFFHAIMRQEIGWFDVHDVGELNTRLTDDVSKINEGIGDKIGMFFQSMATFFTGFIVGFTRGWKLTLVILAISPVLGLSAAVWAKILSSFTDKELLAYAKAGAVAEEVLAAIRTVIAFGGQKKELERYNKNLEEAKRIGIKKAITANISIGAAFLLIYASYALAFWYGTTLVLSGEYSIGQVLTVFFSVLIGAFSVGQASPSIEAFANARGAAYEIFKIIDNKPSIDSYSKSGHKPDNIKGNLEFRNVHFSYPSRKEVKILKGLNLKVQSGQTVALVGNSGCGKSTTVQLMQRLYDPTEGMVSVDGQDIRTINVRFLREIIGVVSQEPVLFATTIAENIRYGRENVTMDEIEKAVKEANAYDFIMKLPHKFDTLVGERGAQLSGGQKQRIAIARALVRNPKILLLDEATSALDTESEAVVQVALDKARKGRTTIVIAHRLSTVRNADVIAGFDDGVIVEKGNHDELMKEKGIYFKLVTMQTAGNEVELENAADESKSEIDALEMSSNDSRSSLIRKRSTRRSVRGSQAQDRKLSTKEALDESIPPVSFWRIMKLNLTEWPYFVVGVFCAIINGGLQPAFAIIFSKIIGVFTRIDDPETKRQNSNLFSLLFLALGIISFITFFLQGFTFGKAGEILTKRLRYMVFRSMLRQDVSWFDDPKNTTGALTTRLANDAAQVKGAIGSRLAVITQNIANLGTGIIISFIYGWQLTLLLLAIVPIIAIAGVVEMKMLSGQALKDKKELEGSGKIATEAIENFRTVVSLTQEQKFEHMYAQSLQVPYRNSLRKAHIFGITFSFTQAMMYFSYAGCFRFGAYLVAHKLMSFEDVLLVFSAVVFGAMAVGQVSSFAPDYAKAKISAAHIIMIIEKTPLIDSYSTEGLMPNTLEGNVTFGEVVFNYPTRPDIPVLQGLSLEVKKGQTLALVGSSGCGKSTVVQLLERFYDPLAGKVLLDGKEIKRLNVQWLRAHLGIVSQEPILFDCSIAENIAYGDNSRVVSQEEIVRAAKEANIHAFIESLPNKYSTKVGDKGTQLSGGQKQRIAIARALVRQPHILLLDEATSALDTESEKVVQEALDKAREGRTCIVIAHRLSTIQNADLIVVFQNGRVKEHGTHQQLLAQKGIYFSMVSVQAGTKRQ

`C[C@@H]1O[C@@H](O[C@H]2[C@H](O[C@H]3CO[C@@H](O[C@H]4CC[C@]5(C)[C@H]6CC[C@]78OC[C@@]9(CC[C@](C)(C=O)C[C@H]97)C(=O)C[C@@]8(C)[C@]6(C)CC[C@H]5C4(C)C)[C@H](O)[C@H]3O)O[C@H](CO)[C@@H](O)[C@@H]2O)[C@H](O)[C@H](O)[C@H]1O` [Ardisimamilloside H] gave an IC50 on P-gp [1] of 4.2 ± 1.1 µM. Also, the “Effect on rifampicin-induced PXR activity” value on PXR is “dose dependently decreased”. Also, in data set [2], the “Estimated concentration per dose” value is given as 0.011 mg/mL, the “Estimated GIT concentration” value is 0.047 µg/mL and the “Estimated Plasma concentration” value was 0.003 µg/mL. In addition, the EC50 at P-gp [3] is 42 ± 3.5 µM.
In turn, `CC1(C)[C@@H](O[C@@H]2OC[C@H](O[C@@H]3O[C@H](CO)[C@@H](O)[C@H](O)[C@H]3O[C@@H]3OC[C@@H](O)[C@H](O)[C@H]3O)[C@H](O)[C@H]2O)CC[C@]2(C)[C@H]3CC[C@]45OC[C@@]6(CC[C@](C)(C=O)C[C@H]64)[C@H](O)C[C@@]5(C)[C@]3(C)CC[C@@H]12` [Primulanin] had an IC50 on P-gp [1] of 6.4 ± 2.3 µM. On PXR, the “Effect on rifampicin-induced PXR activity” value is reported as “dose dependently decreased”. Further, in data set [2], the “Estimated concentration per dose” value is 0.07 mg/mL, the “Estimated GIT concentration” value is 0.31 µg/mL and the “Estimated Plasma concentration” value was 0.026 µg/mL. The EC50 at P-gp [3] is 34 ± 2.3 µM.
Consider Lucifer yellow [LY], for which, in data set [4], the Papp value is 1.1 ± 0.8 × 10^-6 cm/s.
